Assay results from ChEMBL document CHEMBL1914281, “Discovery of novel pyridyl carboxamides as potent CCR5 antagonists and optimization of their pharmacokinetic profile in rats” (Bioorg Med Chem Lett, 2011).

Tests used:
[1] = Oral bioavailability in Sprague-Dawley rat plasma at 1 mg/kg; format: ADME, organism-based
[2] = Metabolic stability of the compound in Sprague-Dawley rat plasma assessed as compound remaining at 1 mg/kg after 30 mins; format: ADME, organism-based; design: dose 1 mg/kg; details: read-out: Stability
[3] = Half life in Sprague-Dawley rat plasma at 1 mg/kg; format: ADME, organism-based; design: dose 1 mg/kg
[4] = Clearance in Sprague-Dawley rat plasma at 1 mg/kg; format: ADME, organism-based; design: dose 1 mg/kg
[5] = Metabolic stability of the compound in Sprague-Dawley rat plasma assessed as compound remaining at 1 mg/kg after 20 mins; format: ADME, organism-based; design: dose 1 mg/kg; details: read-out: Stability
[6] = system: Human immunodeficiency virus 1; assay: Antiviral activity against Human immunodeficiency virus 1 Ba-L in human PBL cells assessed as inhibition of viral replication; format: functional, organism-based
[7] = Metabolic stability of the compound in Sprague-Dawley rat plasma assessed as compound remaining at 1 mg/kg after 10 mins; format: ADME, organism-based; design: dose 1 mg/kg; details: read-out: Stability
[8] = system: Human immunodeficiency virus 1; assay: Antiviral activity against Human immunodeficiency virus 1 Ba-L by in human HOS cells assessed as inhibition of viarl entry by luciferase reporter gene assay; format: functional, organism-based
Plasma [9] = assay: (§1) Metabolic stability of the compound in Sprague-Dawley rat plasma assessed as compound remaining at 1 mg/kg after 45 mins; format: ADME, organism-based; design: dose 1 mg/kg; details: in vivo, 0.75 h
Plasma [10] = assay: (§2) Metabolic stability of the compound in Sprague-Dawley rat plasma assessed as compound remaining at 1 mg/kg after 60 mins; format: ADME, organism-based; design: dose 1 mg/kg; details: in vivo, 1 h
[11] = Metabolic stability of the compound in Sprague-Dawley rat plasma assessed as compound remaining at 1 mg/kg after 5 mins; format: ADME, organism-based; design: dose 1 mg/kg; details: read-out: Stability
HOS = assay: Cytotoxicity in human HOS cells assessed as cell death up to 1 uM; format: cell-based
PBL = assay: Cytotoxicity in human PBL cells assessed as cell death up to 1 uM; format: cell-based
[12] = as §1; format: ADME, organism-based; design: dose 1 mg/kg; details: Sprague-Dawley, plasma, read-out: Stability
[13] = as §2; format: ADME, organism-based; design: dose 1 mg/kg; details: Sprague-Dawley, plasma, read-out: Stability
Plasma [14] = assay: Stability of the compound in Sprague-Dawley rat plasma; format: ADME, cell-free

remaining at 0.5 h [2] | remaining at 20 min [5] | IC50 [6] | remaining at 10 min [7] | IC50 [8] | remaining at 5 min [11] | Compound | Activity (HOS) | Activity (PBL) | also measured
120% | 94% | 5.3 nM | 88% | 1.9 nM | 90% | Cc1cc(NC(=O)N(c2cccc(F)c2)C2CCN(Cc3ccc(Oc4ccc(NS(C)(=O)=O)cc4)nc3C)CC2)cnc1C(N)=O |  |  | bioavailability [1]: 30%; half-life [3]: 120 min; clearance [4]: 37 mL/min/kg; Stability (Plasma [9]): 123%; Stability (Plasma [10]): 134%
 |  | 1.1 nM |  | 1.2 nM |  | Cc1nc(Oc2ccc(NS(C)(=O)=O)cc2Cl)ccc1CN1CCC(N(C(=O)Nc2ccc(C(N)=O)nc2)c2cccc(F)c2)CC1 | Non-toxic | Non-toxic | 
25% | 44% | 0.8 nM | 67% | 1 nM | 85% | Cc1nc(Oc2ccc(NS(C)(=O)=O)cc2)ccc1CN1CCC(N(C(=O)Nc2ccc(C(N)=O)nc2)c2cccc(F)c2)CC1 | Non-toxic | Non-toxic | remaining at 0.75 h [12]: 11%; remaining at 1 h [13]: 3%
 |  |  |  |  |  | Cc1nc(Oc2ccc(NS(C)(=O)=O)cc2)ccc1CN1CCC(N(C(=O)Nc2cc(F)c(C(N)=O)cc2F)c2cccc(F)c2)CC1 |  |  | bioavailability [1]: 53%; half-life [3]: 234 min; clearance [4]: 15 mL/min/kg
 |  | 2.2 nM |  | 1 nM |  | CS(=O)(=O)Nc1ccc(Oc2ccc(CN3CCC(N(C(=O)Nc4ccc(C(N)=O)nc4)c4ccccc4)CC3)c(C3CC3)n2)cc1 | Non-toxic | Non-toxic | 
 |  | 0.9 nM |  | 2.4 nM |  | Cc1nc(Oc2ccc(NS(C)(=O)=O)cc2)ncc1CN1CCC(N(C(=O)Nc2ccc(C(N)=O)nc2)c2cccc(F)c2)CC1 | Non-toxic | Non-toxic | 
 |  | 0.6 nM |  | 1 nM |  | Cc1cc(NS(C)(=O)=O)ccc1Oc1ccc(CN2CCC(N(C(=O)Nc3ccc(C(N)=O)nc3)c3cccc(F)c3)CC2)c(C)n1 | Non-toxic | Non-toxic | 
 |  | 0.5 nM |  | 1.2 nM |  | Cc1nc(Oc2ccc(NS(C)(=O)=O)cc2F)ccc1CN1CCC(N(C(=O)Nc2ccc(C(N)=O)nc2)c2cccc(F)c2)CC1 | Non-toxic | Non-toxic | 
 |  |  |  | 10 nM |  | CS(=O)(=O)Nc1ccc(Oc2ccc(CN3CCC(N(C(=O)Nc4ccc(C(N)=O)nc4)c4ccccc4)CC3)cn2)cc1 |  |  | 
84% | 95% | 3.9 nM | 91% | 3.6 nM | 94% | Cc1nc(Oc2ccc(NS(C)(=O)=O)cc2)ccc1CN1CCC(N(C(=O)Nc2ccc(C(N)=O)nc2C)c2cccc(F)c2)CC1 |  |  | bioavailability [1]: 49%; half-life [3]: 168 min; clearance [4]: 11.7 mL/min/kg; remaining at 0.75 h [12]: 74%; remaining at 1 h [13]: 71%
26% | 42% | 1.1 nM | 71% | 1.2 nM | 86% | Cc1nc(Oc2ccc(NS(C)(=O)=O)cc2)ccc1CN1CCC(N(C(=O)Nc2cnc(C(N)=O)c(F)c2)c2cccc(F)c2)CC1 |  |  | Stability (Plasma [14]): Unstable; remaining at 0.75 h [12]: 12%; remaining at 1 h [13]: 4%
 |  |  |  | 44 nM |  | CS(=O)(=O)Nc1ccc(Oc2ccc(CN3CCC(N(C(=O)Nc4ccc(C#N)nc4)c4ccccc4)CC3)cn2)cc1 |  |  | 
